Measurements as given in US9428469B2, “Antiviral compounds” (priority 2013, dated 2016).
Where a name gives a salt, the structure may show the parent alone.

Assays:
HCVpp GT-1b = assay: microbe, parasite or virus in culture; format: cell-based, Hepatitis C virus (GT1b Con1 strain); conditions: Hepatitis C virus, GT1B, 72 h, read-out: HCVpp GT-1b (EC50, μM)
VSVpp = assay: microbe, parasite or virus in culture; format: cell-based; conditions: Vesicular stomatitis virus, 72 h, read-out: VSVpp (EC50, μM)

SMILES | EC50 (HCVpp GT-1b) | EC50 (VSVpp)
FC(F)(F)c1ccc(CNc2nc(Nc3cc(Cl)c(Br)c(C(F)(F)F)c3)n[nH]2)cc1 [Compound 1, N3-(4-bromo-3-chloro-5-(trifluoromethyl)phenyl)-N5-(4-(trifluoromethyl)benzyl)-1H-1,2,4-triazole-3,5-diamine] | 1.35 µM | 13.7 µM
Clc1cc(Cl)cc(Nc2n[nH]c(NCc3ccco3)n2)c1 [Compound 2, N3-(3,5-dichlorophenyl)-N5-(furan-2-ylmethyl)-1H-1,2,4-triazole-3,5-diamine] | 2.58 µM | 11.9 µM
Cc1ccc(CNc2nc(Nc3cc(Cl)cc(Cl)c3)n[nH]2)o1 [Compound 3, N3-(3,5-dichlorophenyl)-N5-((5-methylfuran-2-yl)methyl)-1H-1,2,4-triazole-3,5-diamine] | 3.27 µM | 19.3 µM
FC(F)(F)c1ccc(Cl)cc1CNc1nc(Nc2cc(Cl)cc(Cl)c2)n[nH]1 [Compound 4, N5-(5-chloro-2-(trifluoromethyl)benzyl)-N3-(3,5-dichlorophenyl)-1H-1,2,4-triazole-3,5-diamine] | 4.66 µM | 13.2 µM
Clc1ccc(CNc2nc(Nc3cc(Cl)cc(Cl)c3)n[nH]2)nc1 [Compound 5, N5-((5-chloropyridin-2-yl)methyl)-N3-(3,5-dichlorophenyl)-1H-1,2,4-triazole-3,5-diamine] | 1.57 µM | 33.6 µM
CC(C)(C)OC(=O)Nc1ccc(CNc2nc(Nc3cc(Cl)cc(Cl)c3)n[nH]2)cn1 [Compound 6, Tert-butyl 5-((3-(3,5-dichlorophenylamino)-1H-1,2,4-triazol-5-ylamino)methyl)pyridin-2-ylcarbamate] | 7.81 µM | 14.5 µM
CC(C)(C)OC(=O)c1ccc(CNc2nc(Nc3cc(Cl)cc(Cl)c3)n[nH]2)cc1 [Compound 7, tert-butyl 4-((3-(3,5-dichlorophenylamino)-1H-1,2,4-triazol-5-ylamino)methyl)benzoate] | 0.414 µM | 33.3 µM
CC(C)(C)OC(=O)c1ccccc1CNc1nc(Nc2cc(Cl)cc(Cl)c2)n[nH]1 [Compound 8, tert-butyl 2-((3-(3,5-dichlorophenylamino)-1H-1,2,4-triazol-5-ylamino)methyl)benzoate] | 9.99 µM | 22 µM
Clc1cc(Cl)cc(Nc2n[nH]c(NCc3ccccc3)n2)c1 [Compound 9, N5-benzyl-N3-(3,5-dichlorophenyl)-1H-1,2,4-triazole-3,5-diamine] | 1.72 µM | 22.8 µM
Nc1ccc(CNc2nc(Nc3cc(Cl)cc(Cl)c3)n[nH]2)cn1 [Compound 10, N5-((6-aminopyridin-3-yl)methyl)-N3-(3,5-dichlorophenyl)-1H-1,2,4-triazole-3,5-diamine] | 58.3 µM | 100 µM
Cn1cc(CNc2nc(Nc3cc(Cl)cc(Cl)c3)n[nH]2)cn1 [Compound 11, N3-(3,5-dichlorophenyl)-N5-((1-methyl-1H-pyrazol-4-yl)methyl)-1H-1,2,4-triazole-3,5-diamine] | 23.9 µM | 25.7 µM
O=C(O)c1ccc(CNc2nc(Nc3cc(Cl)cc(Cl)c3)n[nH]2)cc1 [Compound 12, 4-((3-(3,5-dichlorophenylamino)-1H-1,2,4-triazol-5-ylamino)methyl)benzoic acid; trifluoroacetic acid salt] | 19.5 µM | 100 µM
O=C(O)c1cccc(CNc2nc(Nc3cc(Cl)cc(Cl)c3)n[nH]2)c1 [Compound 13, 3-((3-(3,5-dichlorophenylamino)-1H-1,2,4-triazol-5-ylamino)methyl)benzoic acid; trifluoroacetic acid salt] | 37.5 µM | 78.1 µM
O=C(O)c1ccccc1CNc1nc(Nc2cc(Cl)cc(Cl)c2)n[nH]1 [Compound 14, 2-((3-(3,5-dichlorophenylamino)-1H-1,2,4-triazol-5-ylamino)methyl)benzoic acid; trifluoroacetic acid salt] | 96 µM | 100 µM
CS(=O)(=O)c1ccc(CNc2nc(Nc3cc(Cl)cc(Cl)c3)n[nH]2)cc1 [Compound 15, N3-(3,5-dichlorophenyl)-N5-(4-(methylsulfonyl)benzyl)-1H-1,2,4-triazole-3,5-diamine] | 10 µM | 10 µM
N#Cc1ccc(CNc2nc(Nc3cc(Cl)cc(Cl)c3)n[nH]2)cc1 [Compound 16, 4-((3-(3,5-dichlorophenylamino)-1H-1,2,4-triazol-5-ylamino)methyl)benzonitrile] | 3.34 µM | 10 µM
CN(C)S(=O)(=O)c1ccc(CNc2nc(Nc3cc(Cl)cc(Cl)c3)n[nH]2)cc1 [Compound 17, 4-((3-(3,5-dichlorophenylamino)-1H-1,2,4-triazol-5-ylamino)methyl)-N,N-dimethylbenzenesulfonamide] | 10 µM | 10 µM
FC(F)(F)c1ccc(CNc2nc(Nc3cc(Cl)cc(Cl)c3)n[nH]2)cc1Cl [Compound 19, N5-(3-chloro-4-(trifluoromethyl)benzyl)-N3-(3,5-dichlorophenyl)-1H-1,2,4-triazole-3,5-diamine] | 4.83 µM | 10 µM
O=S(=O)(c1ccc(CNc2nc(Nc3cc(Cl)cc(Cl)c3)n[nH]2)cc1)N1CCCC1 [Compound 20, N3-(3,5-dichlorophenyl)-N5-(4-(pyrrolidin-1-ylsulfonyl)benzyl)-1H-1,2,4-triazole-3,5-diamine] | 10 µM | 10 µM
O=S(=O)(c1ccc(CNc2nc(Nc3cc(Cl)cc(Cl)c3)n[nH]2)cc1)N1CCOCC1 [Compound 21, N3-(3,5-dichlorophenyl)-N5-(4-(morpholinosulfonyl)benzyl)-1H-1,2,4-triazole-3,5-diamine] | 10 µM | 10 µM
N#Cc1c(Cl)cc(Nc2n[nH]c(NCc3ccc(C(F)(F)F)cc3)n2)cc1Cl [Compound 22, 2,6-dichloro-4-(5-(4-(trifluoromethyl)benzylamino)-1H-1,2,4-triazol-3-ylamino)benzonitrile] | 0.224 µM | 5.3 µM
CC(C)(C)OC(=O)c1ccc(CNc2nc(Nc3cc(Cl)c(C#N)c(Cl)c3)n[nH]2)cc1 [Compound 23, tert-butyl 4-((3-(3,5-dichloro-4-cyanophenylamino)-1H-1,2,4-triazol-5-ylamino)methyl)benzoate] | 0.029 µM | 10 µM
CC(C)S(=O)(=O)c1ccc(-c2c(Cl)cc(Nc3n[nH]c(NCc4ccc(C(=O)OC(C)(C)C)cc4)n3)cc2C(F)(F)F)cc1 [Compound 24, tert-butyl 4-((3-(2-chloro-4′-(isopropylsulfonyl)-6-(trifluoromethyl)biphenyl-4-ylamino)-1H-1,2,4-triazol-5-ylamino)methyl)benzoate] | 0.014 µM | 6.2 µM
FC(F)(F)c1ccc(CNc2nc(Nc3cc(Cl)cc(Cl)c3)n[nH]2)cc1 [Compound 25, N*3*-(3,5-Dichloro-phenyl)-N*5*-(4-trifluoromethyl-benzyl)-1H-[1,2,4]triazole-3,5-diamine] | 0.046 µM | 29.1 µM
FC(F)(F)c1cccc(CNc2nc(Nc3cc(Cl)cc(Cl)c3)n[nH]2)c1 [Compound 26, N*3*-(3,5-Dichloro-phenyl)-N*5*-(3-trifluoromethyl-benzyl)-1H-[1,2,4]triazole-3,5-diamine] | 0.709 µM | 30.3 µM
CS(=O)(=O)N1CCC(Nc2nc(Nc3cc(Cl)cc(Cl)c3)n[nH]2)CC1 [Compound 27, N*3*-(3,5-Dichloro-phenyl)-N*5*-(1-methanesulfonyl-piperidin-4-yl)-1H-[1,2,4]triazole-3,5-diamine] | 59.6 µM | 42.4 µM
CC(C)(C)OC(=O)N1CCC(Nc2nc(Nc3cc(Cl)cc(Cl)c3)n[nH]2)CC1 [Compound 28, 4-[5-(3,5-Dichloro-phenylamino)-2H-[1,2,4]triazol-3-ylamino]-piperidine-1-carboxylic acid tert-butyl ester] | 6.57 µM | 11.1 µM
Clc1cc(Cl)cc(Nc2n[nH]c(NC3CCNCC3)n2)c1 [Compound 29, N*3*-(3,5-Dichloro-phenyl)-N*5*-piperidin-4-yl-1H-[1,2,4]triazole-3,5-diamine; compound with trifluoro-acetic acid] | 10 µM | 10 µM
CC(=O)N1CCC(Nc2nc(Nc3cc(Cl)cc(Cl)c3)n[nH]2)CC1 [Compound 30, 1-{4-[5-(3,5-Dichloro-phenylamino)-2H-[1,2,4]triazol-3-ylamino]-piperidin-1-yl}-ethanone] | 95.8 µM | 49.6 µM
Clc1cc(Cl)cc(Nc2n[nH]c(NCc3cncnc3)n2)c1 [Compound 31, N*3*-(3,5-Dichloro-phenyl)-N*5*-pyrimidin-5-ylmethyl-1H-[1,2,4]triazole-3,5-diamine] | 44.3 µM | 100 µM
